# Assays:
# Aβ1-42 = target: T1, Aβ1-42 (Homo sapiens, UniProt P05067); assay: Amyloid-beta (Aβ) disaggregation test by thioflavin-T assay; format: biochemical; conditions: 50 μM Aβ1-42 aggregated 24 hours, then compound 0-500 μM for 48 hours at 37° C.
# T1 construct: dissolving Aβ1-42 or Tau-RD3 (Tau repeat domain 3) monomer in DMSO
# Description: (§1) Each compound was dissolved in DMSO to a concentration of 10 mM. Subsequently, the compound was diluted with 6% DMSO (in DW) and used.
# (§2) Specifically, amyloid-beta and tau solutions were prepared by dissolving Aβ1-42 or Tau-RD3 (Tau repeat domain 3) monomer in DMSO to a concentration of 10 mM. Thereafter, each solution was diluted with DW to a concentration of 100 μM and stored on ice. Meanwhile, thioflavin-T was dissolved in 50 mM glycine buffer (pH 8.5) to a concentration of 5 mM. Thereafter, the resulting solution was diluted with 50 mM glycine buffer (pH 8.5) to a concentration of 5 μM and stored in a dark room while light was blocked.
# (§3) Each of the amyloid-beta and tau solutions prepared according to Experimental Example 1.1 was added to a 1.5 mL microcentrifuge tube to a concentration of 50 μM or 35 µM, and then a reaction was allowed to occur therebetween at 37° C. for 24 hours. Each of the 1.5 mL microcentrifuge tubes in which amyloid-beta aggregation and tau aggregation had been completed was treated with each compound at a concentrated of 500 μM to 0 μM through serial dilution, and then a further reaction was allowed to occur therebetween at 37° C. for 48 hours. 25 μL of the reaction solution in which the reaction had been completed was added to each well of a 96-well plate for fluorescence analysis, and 75 μL of the previously prepared thioflavin-T solution was added to each well. After a reaction was allowed to occur at room temperature in the dark for 5 minutes, fluorescence values were measured at excitation 450 nm and emission 485 nm by using a multi-mode microplate reader.
# (§4) The fluorescence value of a group (control) treated with amyloid-beta or tau alone, followed by aggregation for 72 hours was converted into a percentage value and expressed as 100, and amyloid-beta and tau aggregates, in which aggregation had been completed upon reaction for 24 hours, were treated with each compound at each concentration and a further reaction was allowed to occur therebetween for 48 hours, and then fluorescence values thereof were measured and converted into relative values. The results thereof are illustrated in FIGS. 1 to 6 and 7 to 12. In addition, EC50 values of the compounds of the present disclosure for amyloid-beta and tau, respectively are summarized in Table 1.
# [1] = target: Tau-RD3 (Tau repeat domain 3) (Homo sapiens, UniProt P10636); assay: Tau disaggregation test by thioflavin-T assay; format: biochemical; conditions: 35 μM Tau-RD3 aggregated 24 hours, then compound 0-500 μM for 48 hours at 37° C.
# Tau-RD3 (Tau repeat domain 3), sequence (P10636 623-653 limits assumed): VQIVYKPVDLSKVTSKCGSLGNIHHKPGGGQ
# Description: as §1, §2, §3, §4
# T1 sequence (P05067 672-713 limits assumed): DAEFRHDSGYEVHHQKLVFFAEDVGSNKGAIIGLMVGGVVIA
Compound,EC50 (Aβ1-42),EC50 [1]
"Cc1ncsc1C1=C(c2ccccc2)C(=O)c2cc(OCCCc3ccccc3)ccc21 [Compound 10, 3-(4-methylthiazol-5-yl)-2-phenyl-6-(3-phenylpropoxy)-1H-inden-1-one]",5.6 µM,350 µM
"O=C1C(c2cccnc2)=C(c2ccoc2)c2ccc(OCCOc3ccccc3)cc21 [Compound 41, 3-(furan-3-yl)-6-(2-phenoxyethoxy)-2-(pyridin-3-yl)-1H-inden-1-one]",1.1 µM,4.8 µM
"O=C1C(c2cccnc2)=C(c2ccoc2)c2ccc(OCCc3ccccc3)cc21 [Compound 38, 3-(furan-3-yl)-6-phenethoxy-2-(pyridin-3-yl)-1H-inden-1-one]",3 µM,120 µM
"O=C1C(c2cccnc2)=C(c2ccoc2)c2ccc(OCCCc3ccccc3)cc21 [Compound 9, 3-(furan-3-yl)-6-(3-phenylpropoxy)-2-(pyridin-3-yl)-1H-inden-1-one]",19.1 µM,53.6 µM
"Cc1scnc1C1=C(c2ccc(C(F)(F)F)cc2)C(=O)c2cc(OCCOc3ccc4c(c3)OCO4)ccc21 [Compound 34, 6-(2-(benzo[d][1,3]dioxol-5-yloxy)ethoxy)-3-(5-methylthiazol-4-yl)-2-(4-(trifluoromethyl)phenyl)-1H-inden-1-one]",31.2 µM,426 µM
"Cc1scnc1C1=C(c2cccs2)C(=O)c2cc(OCCc3ccccc3)ccc21 [Compound 28, 3-(5-methylthiazol-4-yl)-6-phenethoxy-2-(thiophen-2-yl)-1H-inden-1-one]",8.3 µM,310 µM
"Cc1ncsc1C1=C(c2cccnc2)C(=O)c2cc(OCCc3ccccc3)ccc21 [Compound 14, 3-(4-methylthiazol-5-yl)-6-phenethoxy-2-(pyridin-3-yl)-1H-inden-1-one]",177 µM,> 500 µM
"Cc1ncsc1C1=C(c2ccccc2CC#N)C(=O)c2cc(OCCCc3ccccc3)ccc21 [Compound 2, 2-(2-(3-(4-methylthiazol-5-yl)-1-oxo-6-(3-phenylpropoxy)-1H-inden-2-yl)phenyl) acetonitrile]",92.9 µM,321 µM
"COc1ccc(OCCOc2ccc3c(c2)C(=O)C(c2cccnc2)=C3c2ccoc2)cc1 [Compound 42, 3-(furan-3-yl)-6-(2-(4-methoxyphenoxy)ethoxy)-2-(pyridin-3-yl)-1H-inden-1-one]",31.2 µM,124 µM
"O=C1C(c2cccnc2)=C(c2ccoc2)c2ccc(OCCOc3ccc(Cl)c(Cl)c3)cc21 [Compound 46, 6-(2-(3,4-dichlorophenoxy)ethoxy)-3-(furan-3-yl)-2-(pyridin-3-yl)-1H-inden-1-one]",1.4 µM,2.1 µM
"Cc1ncsc1C1=C(c2cccs2)C(=O)c2cc(OCCCc3ccccc3)ccc21 [Compound 12, 3-(4-methylthiazol-5-yl)-6-(3-phenylpropoxy)-2-(thiophen-2-yl)-1H-inden-1-one]",4.3 µM,154 µM
"Cc1ncsc1C1=C(c2cccnc2)C(=O)c2cc(OCCCCc3ccccc3)ccc21 [Compound 15, 3-(4-methylthiazol-5-yl)-6-(4-phenylbutoxy)-2-(pyridin-3-yl)-1H-inden-1-one]",2.5 µM,59.8 µM
"O=C1C(c2cccnc2)=C(c2ccoc2)c2ccc(OCCOc3ccncc3)cc21 [Compound 45, 3-(furan-3-yl)-2-(pyridin-3-yl)-6-(2-(pyridin-4-yloxy)ethoxy)-1H-inden-1-one]",9.1 µM,11.9 µM
"COc1ccc(OCCOc2ccc3c(c2)C(=O)C(c2ccc(C(F)(F)F)cc2)=C3c2ncsc2C)cc1OC [Compound 33, 6-(2-(3,4-dimethoxyphenoxy)ethoxy)-3-(5-methylthiazol-4-yl)-2-(4-(trifluoromethyl)phenyl)-1H-inden-1-one]",10.4 µM,145 µM
"Cc1ncsc1C1=C(Br)C(=O)c2cc(OCCCc3ccccc3)ccc21 [Compound 3, 2-bromo-3-(4-methylthiazol-5-yl)-6-(3-phenylpropoxy)-1H-inden-1-one]",3.8 µM,8.5 µM
"Cc1scnc1C1=C(c2cccs2)C(=O)c2cc(OCOCc3ccccc3)ccc21 [Compound 30, 6-((benzyloxy)methoxy)-3-(5-methylthiazol-4-yl)-2-(thiophen-2-yl)-1H-inden-1-one]",3.7 µM,410 µM

Compound,EC50 (Aβ1-42),EC50 [1]
"COc1ccc(OCCOc2ccc3c(c2)C(=O)C(c2ccc(F)cc2)=C3c2ncsc2C)cc1 [Compound 22, 2-(4-fluorophenyl)-6-(2-(4-methoxyphenoxy)ethoxy)-3-(5-methylthiazol-4-yl)-1H-inden-1-one]",18.5 µM,60.3 µM
"Cc1scnc1C1=C(c2ccc(F)cc2)C(=O)c2cc(OCCOc3ccc4c(c3)OCO4)ccc21 [Compound 24, 6-(2-(benzo[d][1,3]dioxol-5-yloxy)ethoxy)-2-(4-fluorophenyl)-3-(5-methylthiazol-4-yl)-1H-inden-1-one]",99.6 µM,> 500 µM
"COc1ccc(C2=C(c3ncsc3C)c3ccc(OCOCc4ccccc4)cc3C2=O)cc1 [Compound 20, 6-((benzyloxy)methoxy)-2-(4-methoxyphenyl)-3-(5-methylthiazol-4-yl)-1H-inden-1-one]",11.9 µM,478 µM
"Cc1scnc1C1=C(c2cccnc2)C(=O)c2cc(OCCCN3CCOCC3)ccc21 [Compound 4, 3-(5-methylthiazol-4-yl)-6-(3-morpholinopropoxy)-2-(pyridin-3-yl)-1H-inden-1-one]",75 µM,156 µM
"Cc1scnc1C1=C(c2cncnc2)C(=O)c2cc(OCCOc3ccc(Cl)c(Cl)c3)ccc21 [Compound 26, 6-(2-(3,4-dichlorophenoxy)ethoxy)-3-(5-methylthiazol-4-yl)-2-(pyrimidin-5-yl)-1H-inden-1-one]",2.4 µM,4.8 µM
"COc1ccc(OCCOc2ccc3c(c2)C(=O)C(c2ccc(F)cc2)=C3c2ncsc2C)cc1OC [Compound 23, 6-(2-(3,4-dimethoxyphenoxy)ethoxy)-2-(4-fluorophenyl)-3-(5-methylthiazol-4-yl)-1H-inden-1-one]",4.1 µM,5.2 µM
"Cc1scnc1C1=C(c2cccnc2)C(=O)c2cc(OCCCc3ccccc3)ccc21 [Compound 8, 3-(5-methylthiazol-4-yl)-6-(3-phenylpropoxy)-2-(pyridin-3-yl)-1H-inden-1-one]",1.9 µM,4.2 µM
"Cc1scnc1C1=C(c2cccs2)C(=O)c2cc(OCCCCc3ccccc3)ccc21 [Compound 29, 3-(5-methylthiazol-4-yl)-6-(4-phenylbutoxy)-2-(thiophen-2-yl)-1H-inden-1-one]",7.5 µM,> 500 µM
"CC(C)c1ccc(OCCOc2ccc3c(c2)C(=O)C(c2cccnc2)=C3c2ccoc2)cc1 [Compound 49, 3-(furan-3-yl)-6-(2-(4-isopropylphenoxy)ethoxy)-2-(pyridin-3-yl)-1H-inden-1-one]",1.5 µM,1.9 µM
"COc1ccc(C2=C(c3ncsc3C)c3ccc(OCCCCc4ccccc4)cc3C2=O)cc1 [Compound 19, 2-(4-methoxyphenyl)-3-(5-methylthiazol-4-yl)-6-(4-phenylbutoxy)-1H-inden-1-one]",11.6 µM,338 µM
"Cc1scnc1C1=C(Br)C(=O)c2cc(OCCCN3CCOCC3)ccc21 [Compound 5, 2-bromo-3-(5-methylthiazol-4-yl)-6-(3-morpholinopropoxy)-1H-inden-1-one]",65.6 µM,344 µM
"Cc1ncsc1C1=C(c2cccnc2)C(=O)c2cc(OCCCc3ccccc3)ccc21 [Compound 1, 3-(4-methylthiazol-5-yl)-6-(3-phenylpropoxy)-2-(pyridin-3-yl)-1H-inden-1-one]",8.2 µM,19.2 µM
"Cc1scnc1C1=C(c2ccc(F)cc2)C(=O)c2cc(OCCOc3ccncc3)ccc21 [Compound 25, 2-(4-fluorophenyl)-3-(5-methylthiazol-4-yl)-6-(2-(pyridin-4-yloxy)ethoxy)-1H-inden-1-one]",7.6 µM,> 500 µM
"Cc1scnc1C1=C(c2cccs2)C(=O)c2cc(OCCOc3ccc(Cl)c(Cl)c3)ccc21 [Compound 36, 6-(2-(3,4-dichlorophenoxy)ethoxy)-3-(5-methylthiazol-4-yl)-2-(thiophen-2-yl)-1H-inden-1-one]",26 µM,> 500 µM
"Cc1scnc1C1=C(c2cccs2)C(=O)c2cc(OCCOc3ccc(F)c(F)c3)ccc21 [Compound 37, 6-(2-(3,4-difluorophenoxy)ethoxy)-3-(5-methylthiazol-4-yl)-2-(thiophen-2-yl)-1H-inden-1-one]",46.3 µM,470 µM

# Source: patent publication US20260256797A1, “NOVEL INDENONE DERIVATIVES AND USES THEREOF” (AMYLOID SOLUTION INC., priority 2022, published 2026)
